How the values were obtained:
[1] = system: windgrass; assay: Test Example 4: herbicidal effect by soil treatment (Table 19, symbol L); assay type: in vivo, windgrass (Apera spica-venti)
In short: (§1)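 In this soil treatment, the formulated compound reached the seeds only through the soil: seeds were buried about 1.5 cm deep in sterilized diluvial soil, then the diluted emulsion was sprayed over the surface. After three weeks at 25° C. to 30° C. in a greenhouse, effects were graded on criteria from an earlier test.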

[2] = system: Italian ryegrass; assay: Test Example 5: herbicidal effect by foliage application, plastic box (Table 20, symbol K); assay type: in vivo, Italian ryegrass (Lolium multiflorum); conditions: foliage application
In short: (§2)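 Plants were sown into sterilized diluvial soil under about 1.5 cm cover and kept in a greenhouse at 25° C. to 30° C. Fourteen days on, foliage received an even spray of the diluted emulsion. Herbicidal or crop effect was judged three weeks afterwards.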

[3] = system: southern crabgrass; assay: Test Example 5: herbicidal effect by foliage application, plastic box (Table 20, symbol F); assay type: in vivo, southern crabgrass (Digitaria ciliaris); conditions: foliage application
In short: as §2

[4] = system: windgrass; assay: Test Example 5: herbicidal effect by foliage application, plastic box (Table 20, symbol L); assay type: in vivo, windgrass (Apera spica-venti); conditions: foliage application
In short: as §2

[5] = system: southern crabgrass; assay: Test Example 4: herbicidal effect by soil treatment (Table 19, symbol F); assay type: in vivo, southern crabgrass (Digitaria ciliaris)
In short: as §1

[6] = system: persian speedwell; assay: Test Example 4: herbicidal effect by soil treatment (Table 19, symbol R); assay type: in vivo, Persian speedwell (Veronica persica)
In short: as §1

[7] = system: lambsquarters; assay: Test Example 4: herbicidal effect by soil treatment (Table 19, symbol O); assay type: in vivo, lambsquarters (Chenopodium album)
In short: as §1

[8] = system: Chinese sprangletop; assay: Test Example 3: herbicidal effect by foliage application, Wagner pot (Table 18, symbol D); assay type: in vivo, chinese sprangletop (Leptochloa chinensis); conditions: 320 g/ha
In short: (§3)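 Plants were sown in alluvial soil held under 0.1–0.5 cm standing water and grown 14 days in a greenhouse at 25–30 °C. An emulsifiable formulation, water-diluted to the set dose, was then sprayed onto the foliage, and effects were scored three weeks later using previously defined criteria.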

[9] = system: blackgrass; assay: Test Example 4: herbicidal effect by soil treatment (Table 19, symbol J); assay type: in vivo, blackgrass (Alopecurus myosuroides)
In short: as §1

[10] = system: Italian ryegrass; assay: Test Example 4: herbicidal effect by soil treatment (Table 19, symbol K); assay type: in vivo, Italian ryegrass (Lolium multiflorum)
In short: as §1

[11] = system: blackgrass; assay: Test Example 5: herbicidal effect by foliage application, plastic box (Table 20, symbol J); assay type: in vivo, blackgrass (Alopecurus myosuroides); conditions: foliage application
In short: as §2

[12] = system: wild oat; assay: Test Example 5: herbicidal effect by foliage application, plastic box (Table 20, symbol I); assay type: in vivo, wild oat (Avena fatua); conditions: foliage application
In short: as §2

[13] = system: rice flat sedge; assay: Test Example 3: herbicidal effect by foliage application, Wagner pot (Table 18, symbol E); assay type: in vivo, rice flat sedge (Cyperus iria); conditions: 320 g/ha
In short: as §3

[14] = system: velvetleaf; assay: Test Example 4: herbicidal effect by soil treatment (Table 19, symbol M); assay type: in vivo, velvetleaf (Abutilon theophrasti)
In short: as §1

[15] = system: wild oat; assay: Test Example 4: herbicidal effect by soil treatment (Table 19, symbol I); assay type: in vivo, wild oat (Avena fatua)
In short: as §1

[16] = system: false cleavers; assay: Test Example 5: herbicidal effect by foliage application, plastic box (Table 20, symbol Q); assay type: in vivo, false cleavers (Galium spurium); conditions: foliage application
In short: as §2

[17] = system: barnyard grass; assay: Test Example 4: herbicidal effect by soil treatment (Table 19, symbol H); assay type: in vivo, barnyard grass (Echinochloa crus-galli)
In short: as §1

[18] = system: redroot pigweed; assay: Test Example 5: herbicidal effect by foliage application, plastic box (Table 20, symbol N); assay type: in vivo, redroot pigweed (Amaranthus retroflexus); conditions: foliage application
In short: as §2

[19] = system: lambsquarters; assay: Test Example 5: herbicidal effect by foliage application, plastic box (Table 20, symbol O); assay type: in vivo, lambsquarters (Chenopodium album); conditions: foliage application
In short: as §2

[20] = system: persian speedwell; assay: Test Example 5: herbicidal effect by foliage application, plastic box (Table 20, symbol R); assay type: in vivo, Persian speedwell (Veronica persica); conditions: foliage application
In short: as §2

[21] = system: redroot pigweed; assay: Test Example 4: herbicidal effect by soil treatment (Table 19, symbol N); assay type: in vivo, redroot pigweed (Amaranthus retroflexus)
In short: as §1

[22] = system: chickweed; assay: Test Example 4: herbicidal effect by soil treatment (Table 19, symbol P); assay type: in vivo, common chickweed (Stellaria media)
In short: as §1

[23] = system: green foxtail; assay: Test Example 4: herbicidal effect by soil treatment (Table 19, symbol G); assay type: in vivo, green foxtail (Setaria viridis)
In short: as §1

[24] = system: barnyard grass; assay: Test Example 3: herbicidal effect by foliage application, Wagner pot (Table 18, symbol H); assay type: in vivo, barnyard grass (Echinochloa crus-galli); conditions: 320 g/ha
In short: as §3

[25] = system: chickweed; assay: Test Example 5: herbicidal effect by foliage application, plastic box (Table 20, symbol P); assay type: in vivo, common chickweed (Stellaria media); conditions: foliage application
In short: as §2

[26] = system: velvetleaf; assay: Test Example 5: herbicidal effect by foliage application, plastic box (Table 20, symbol M); assay type: in vivo, velvetleaf (Abutilon theophrasti); conditions: foliage application
In short: as §2

[27] = system: barnyard grass; assay: Test Example 5: herbicidal effect by foliage application, plastic box (Table 20, symbol H); assay type: in vivo, barnyard grass (Echinochloa crus-galli); conditions: foliage application
In short: as §2

[28] = system: green foxtail; assay: Test Example 5: herbicidal effect by foliage application, plastic box (Table 20, symbol G); assay type: in vivo, green foxtail (Setaria viridis); conditions: foliage application
In short: as §2

[29] = 320 g/ha, evaluated three weeks after application
[30] = AAH 320 g/ha, three weeks after application

SMILES: Cc1nn(C)c(=O)c(-c2c(-c3ccc4c(c3)OCO4)sc3ccc(F)cc23)c1O [2-090]
- herbicidal effect rating, L: windgrass ([1]; 320 g/ha): 0 (Herbicidal rate of 5% or less (almost no effect))
- herbicidal effect on K: Italian ryegrass [2, 29]: 5 (Herbicidal rate of 90% or more (almost completely withered))
- herbicidal effect on F: southern crabgrass [3, 29]: 4 (Herbicidal rate of 70% or more and less than 90%)
- herbicidal effect on L: windgrass [4, 29]: 5 (Herbicidal rate of 90% or more (almost completely withered))
- herbicidal effect rating, F: southern crabgrass ([5]; 320 g/ha): 2 (Herbicidal rate of 20% or more and less than 40%)
- herbicidal effect rating, R: persian speedwell ([6]; 320 g/ha): 5 (Herbicidal rate of 90% or more (almost completely withered))
- herbicidal effect rating, O: lambsquarters ([7]; 320 g/ha): 5 (Herbicidal rate of 90% or more (almost completely withered))
- herbicidal effect on D (Chinese sprangletop), rating 0-5 [8]: 2 (Herbicidal rate of 20% or more and less than 40%)
- herbicidal effect rating, J: blackgrass ([9]; 320 g/ha): 2 (Herbicidal rate of 20% or more and less than 40%)
- herbicidal effect rating, K: Italian ryegrass ([10]; 320 g/ha): 4 (Herbicidal rate of 70% or more and less than 90%)
- herbicidal effect on J: blackgrass [11, 29]: 4 (Herbicidal rate of 70% or more and less than 90%)
- herbicidal effect on I: wild oat [12, 29]: 3 (Herbicidal rate of 40% or more and less than 70%)
- herbicidal effect on E (rice flat sedge), rating 0-5 [13]: 5 (Herbicidal rate of 90% or more (almost completely withered))
- herbicidal effect rating, M: velvetleaf ([14]; 320 g/ha): 5 (Herbicidal rate of 90% or more (almost completely withered))
- herbicidal effect rating, I: wild oat ([15]; 320 g/ha): 0 (Herbicidal rate of 5% or less (almost no effect))
- herbicidal effect on Q: false cleavers [16, 29]: 4 (Herbicidal rate of 70% or more and less than 90%)
- herbicidal effect rating, H: barnyard grass ([17]; 320 g/ha): 2 (Herbicidal rate of 20% or more and less than 40%)
- herbicidal effect on N: redroot pigweed [18, 29]: 5 (Herbicidal rate of 90% or more (almost completely withered))
- herbicidal effect on O: lambsquarters [19, 29]: 5 (Herbicidal rate of 90% or more (almost completely withered))
- herbicidal effect on R: persian speedwell [20, 29]: 5 (Herbicidal rate of 90% or more (almost completely withered))
- herbicidal effect rating, N: redroot pigweed ([21]; 320 g/ha): 5 (Herbicidal rate of 90% or more (almost completely withered))
- herbicidal effect rating, P: chickweed ([22]; 320 g/ha): 4 (Herbicidal rate of 70% or more and less than 90%)
- herbicidal effect rating, G: green foxtail ([23]; 320 g/ha): 3 (Herbicidal rate of 40% or more and less than 70%)
- herbicidal effect on H (barnyard grass), rating 0-5 [24]: 5 (Herbicidal rate of 90% or more (almost completely withered))
- herbicidal effect on P: chickweed [25, 29]: 5 (Herbicidal rate of 90% or more (almost completely withered))
- herbicidal effect on M: velvetleaf [26, 29]: 5 (Herbicidal rate of 90% or more (almost completely withered))
- herbicidal effect on H: barnyard grass [27, 29]: 5 (Herbicidal rate of 90% or more (almost completely withered))
- herbicidal effect on G: green foxtail [28, 29]: 5 (Herbicidal rate of 90% or more (almost completely withered))

SMILES: COc1nn(C)c(=O)c(-c2c(-c3ccc(F)c(F)c3)sc3ccccc23)c1O [1-172]
- L: windgrass, herbicidal effect rating ([1]; AAH 320 g/ha): 0 (Herbicidal rate of 5% or less (almost no effect))
- K: Italian ryegrass, herbicidal effect [2, 30]: 3 (Herbicidal rate of 40% or more and less than 70%)
- F: southern crabgrass, herbicidal effect [3, 30]: 0 (Herbicidal rate of 5% or less (almost no effect))
- L: windgrass, herbicidal effect [4, 30]: 0 (Herbicidal rate of 5% or less (almost no effect))
- F: southern crabgrass, herbicidal effect rating ([5]; AAH 320 g/ha): 2 (Herbicidal rate of 20% or more and less than 40%)
- R: persian speedwell, herbicidal effect rating ([6]; AAH 320 g/ha): 5 (Herbicidal rate of 90% or more (almost completely withered))
- O: lambsquarters, herbicidal effect rating ([7]; AAH 320 g/ha): 5 (Herbicidal rate of 90% or more (almost completely withered))
- herbicidal effect on D (Chinese sprangletop), rating 0-5 [8]: 0 (Herbicidal rate of 5% or less (almost no effect))
- J: blackgrass, herbicidal effect rating ([9]; AAH 320 g/ha): 0 (Herbicidal rate of 5% or less (almost no effect))
- K: Italian ryegrass, herbicidal effect rating ([10]; AAH 320 g/ha): 1 (Herbicidal rate of 5% or more and less than 20%)
- J: blackgrass, herbicidal effect [11, 30]: 0 (Herbicidal rate of 5% or less (almost no effect))
- I: wild oat, herbicidal effect [12, 30]: 0 (Herbicidal rate of 5% or less (almost no effect))
- herbicidal effect on E (rice flat sedge), rating 0-5 [13]: 5 (Herbicidal rate of 90% or more (almost completely withered))
- M: velvetleaf, herbicidal effect rating ([14]; AAH 320 g/ha): 1 (Herbicidal rate of 5% or more and less than 20%)
- I: wild oat, herbicidal effect rating ([15]; AAH 320 g/ha): 0 (Herbicidal rate of 5% or less (almost no effect))
- Q: false cleavers, herbicidal effect [16, 30]: 5 (Herbicidal rate of 90% or more (almost completely withered))
- H: barnyard grass, herbicidal effect rating ([17]; AAH 320 g/ha): 0 (Herbicidal rate of 5% or less (almost no effect))
- N: redroot pigweed, herbicidal effect [18, 30]: 5 (Herbicidal rate of 90% or more (almost completely withered))
- O: lambsquarters, herbicidal effect [19, 30]: 5 (Herbicidal rate of 90% or more (almost completely withered))
- R: persian speedwell, herbicidal effect [20, 30]: 5 (Herbicidal rate of 90% or more (almost completely withered))
- N: redroot pigweed, herbicidal effect rating ([21]; AAH 320 g/ha): 5 (Herbicidal rate of 90% or more (almost completely withered))
- P: chickweed, herbicidal effect rating ([22]; AAH 320 g/ha): 5 (Herbicidal rate of 90% or more (almost completely withered))
- G: green foxtail, herbicidal effect rating ([23]; AAH 320 g/ha): 5 (Herbicidal rate of 90% or more (almost completely withered))
- herbicidal effect on H (barnyard grass), rating 0-5 [24]: 0 (Herbicidal rate of 5% or less (almost no effect))
- P: chickweed, herbicidal effect [25, 30]: 5 (Herbicidal rate of 90% or more (almost completely withered))
- M: velvetleaf, herbicidal effect [26, 30]: 3 (Herbicidal rate of 40% or more and less than 70%)
- H: barnyard grass, herbicidal effect [27, 30]: 0 (Herbicidal rate of 5% or less (almost no effect))
- G: green foxtail, herbicidal effect [28, 30]: 4 (Herbicidal rate of 70% or more and less than 90%)

Reference: patent US20230085307A1, “PYRIDAZINONE COMPOUND AND HERBICIDE” (NISSAN CHEMICAL CORPORATION, priority 2019, published 2023)
